Assay results reported in patent US20230203023A1, “SALT AND CRYSTAL FORMS OF GLP-1R AGONISTS AND USES THEREOF” (QILU REGOR THERAPEUTICS INC., priority 2020, published 2023).

Columns and labels:
[1] = Kinetic solubility test in water and bio-relevant media (SGF, FaSSIF, FeSSIF); assay type: physicochemical; details: for S: solubility: 37° C.; for Purity (%), area percentage of API: for reference only (suspensions); for FC: form change: residual solids by XRPD; for pH: supernatant
Method: (§1) Weigh 100 mg of sodium chloride and 50 mg of Triton X-100 into a 50-mL volumetric flask. Add appropriate volume of purified water and sonicate until all solids are completely dissolved. Add about 68 μL of 12 M HCl and sufficient purified water closely to the target volume and adjust to pH 1.8. Dilute to volume with purified water, mix well and check the pH with a pH meter.
as §1, with “170” for “100”, “phosphate monobasic, 21” for “chloride and 50”, “sodium hydroxide and 310 mg of sodium chloride, 110 mg of SIF powder” for “Triton X-100”, “Add” for “Add about 68 μL of 12 M HCl and”, “6.5.” for “1.8.”
Weigh 0.41 mL of glacial acetic acid, 202 mg of sodium hydroxide and 594 mg of sodium chloride, 560 mg of SIF powder into a 50-mL volumetric flask. Add appropriate volume of purified water to dissolve the solids. Then add sufficient purified water closely to the target volume and adjust to pH 5.0. Dilute to volume with purified water, mix well and check the pH with a pH meter.
Kinetic solubility was evaluated in water and three bio-relevant media (SGF, FaSSIF and FeSSIF) for 1/4/24 hours. 3-4 mg of solids were suspended in 3 mL each medium (solid loading: 1 mg/mL, calculated using freeform) to get a suspension, followed by rolling (25 rpm) at 37° C. for 1/4/24 hours. At each time point, ˜1.0 mL of suspension was sampled out for centrifugation (12000 rpm, 2 min) and filtration through 0.45 μm PTFE membrane to obtain supernatant for HPLC and pH tests, the residual solids were analyzed by XRPD.
Kinetic solubility was evaluated for 1:1 Compound II Citrate Salt (Form A), 1:1 Compound II Tris Salt (Form B), and freeform of Compound II in water and three bio-relevant media (SGF, FaSSIF and FeSSIF) for 1/4/24 hours. 3-4 mg of solids were suspended in 3 mL each medium (solid loading:
1 mg/mL, calculated using freeform) to get a suspension, followed by rolling (25 rpm) at 37° C. for 1/4/24 hours. At each time point, ˜1.0 mL of suspension was sampled out for centrifugation (12000 rpm, 2 min) and filtration through 0.45 μm PTFE membrane to obtain supernatant for HPLC and pH tests, the residual solids were analyzed by XRPD. […] The purity results were for reference only since the samples were all suspensions.

[2] = Solid stability evaluation (I/II), XRPD and HPLC; assay type: physicochemical; details: for Observation / Purity (area %): listed as Freeform
Method: To evaluate the physical and chemical stability of 1:1 Compound I Tris Salt (Form A) and amorphous free form, samples were stored under the conditions of 60° C. for 1 day and 25° C./60% RH or 40° C./75% RH for 1 week, respectively.
To evaluate the physical and chemical stability of 1:1 Compound II Citrate Salt (Form A), 1:1 Compound II Tris Salt (Form B) and freeform, samples were stored under the conditions of 60° C. for 1 day and 25° C./60% RH or 40° C./75% RH for 1 week, respectively.

[3] = FaSSIF, 1 hour, listed as Freeform
[4] = FaSSIF, 4 hours, listed as Freeform
[5] = FaSSIF, 24 hours, listed as Freeform
[6] = FeSSIF, 1 hour, listed as Freeform
[7] = FeSSIF, 4 hours, listed as Freeform
[8] = FeSSIF, 24 hours, listed as Freeform
[9] = H2O, 1 hour, listed as Freeform
[10] = H2O, 4 hours, listed as Freeform
[11] = H2O, 24 hours, listed as Freeform
[12] = SGF, 1 hour, listed as Freeform
[13] = SGF, 4 hours, listed as Freeform
[14] = SGF, 24 hours, listed as Freeform

S: solubility [1, 3]: 20 µg/mL | Purity (%), area percentage of API [1, 3]: 85.92% | S: solubility [1, 4]: 20 µg/mL | Purity (%), area percentage of API [1, 4]: 72.84% | S: solubility [1, 5]: 20 µg/mL | Purity (%), area percentage of API [1, 5]: 66.76% | S: solubility [1, 6]: 30 µg/mL | Purity (%), area percentage of API [1, 6]: 71.16% | S: solubility [1, 7]: 20 µg/mL | Purity (%), area percentage of API [1, 7]: 47.29% | S: solubility [1, 8]: 40 µg/mL | Purity (%), area percentage of API [1, 8]: 37.65% | S: solubility [1, 9]: 30 µg/mL | Purity (%), area percentage of API [1, 9]: 93.84% | S: solubility [1, 10]: 30 µg/mL | Purity (%), area percentage of API [1, 10]: 86.44% | S: solubility [1, 11]: 40 µg/mL | Purity (%), area percentage of API [1, 11]: 89.76% | S: solubility [1, 12]: 200 µg/mL | Purity (%), area percentage of API [1, 12]: 94.17% | S: solubility [1, 13]: 200 µg/mL | Purity (%), area percentage of API [1, 13]: 81.32% | S: solubility [1, 14]: 100 µg/mL | Purity (%), area percentage of API [1, 14]: 76.04% | FC: form change ([1]; FaSSIF, 1 hour): No | FC: form change [1, 4]: No | FC: form change ([1]; FaSSIF, 24 hours): Yes | FC: form change ([1]; FeSSIF, 1 hour): No | FC: form change ([1]; FeSSIF, 4 hours): Yes | FC: form change [1, 8]: No | FC: form change ([1]; H2O, 1 hour): No | FC: form change [1, 10]: No | FC: form change [1, 11]: No | FC: form change [1, 12]: No | FC: form change ([1]; SGF, 4 hours): Yes | FC: form change ([1]; SGF, 24 hours): Yes | pH [1, 3]: 6.5 | pH [1, 4]: 6.5 | pH [1, 5]: 6.4 | pH [1, 6]: 5.0 | pH [1, 7]: 5.1 | pH [1, 8]: 5.0 | pH [1, 9]: 6.6 | pH [1, 10]: 7.0 | pH [1, 11]: 7.3 | pH ([1]; SGF, 1 hour): 1.9 | pH [1, 13]: 1.9 | pH [1, 14]: 1.8 | Form change ([2]; 25° C./60% RH (open), 1 week): No | Observation ([2]; 25° C./60% RH (open), 1 week): Yellow | Purity (area %) ([2]; 25° C./60% RH (open), 1 week): 94.58 area % | Form change ([2]; 40° C./75% RH (open), 1 week): No | Observation ([2]; 40° C./75% RH (open), 1 week): Yellow | Purity (area %) ([2]; 40° C./75% RH (open), 1 week): 92.86 area % | Form change ([2]; 60° C. (capped), 1 day): No | Observation ([2]; 60° C. (capped), 1 day): Yellow | Purity (area %) ([2]; 60° C. (capped), 1 day): 88.94 area % | Form change ([2]; Initial): No | Observation ([2]; Initial): Yellow | Purity (area %) ([2]; Initial): 95.27 area %
SMILES: N#Cc1ccc(COc2cccc(C3=CCN(Cc4nc5ccc(C(=O)O)cc5n4C[C@@H]4CCO4)CC3)n2)c(F)c1 [Compound II, (S)-2-((6-((4-cyano-2-fluorobenzyl)oxy)-3′,6′-dihydro-[2,4′-bipyridin]-1′(2′H)-yl)methyl)-1-(oxetan-2-ylmethyl)-1H-benzo[d]imidazole-6-carboxylic acid]
